# Legend:
# [1] = system: VSVΔ51 in various human and mouse cancer cell lines resistant to VSVΔ51 infection; type: cell-based
# [2] = system: VSVΔ51 in various human and mouse cancer cell lines; type: cell-based
substance,measurement,setting,value
Sodium orthovanadate,VSVΔ51 infection and viral titer,[1],Comparable results
same,plaque size,[2],substantially increased plaque size

# — US11517598B2 (priority 2016, dated 2022)
